Results: patent US20240083998A1, “PREVENTION AND TREATMENT OF STEROID-RESISTANT OR GUT GRAFT-VERSUS-HOST DISEASE (GVHD)” (CIY OF HOPE, priority 2021, published 2024)

Tested on: BALB/c recipients
Protocol: Splenocytes and T cell depleted bone marrow cells from donors were injected via tail vein into recipients 6-8 hours after irradiation. […] Depletion of T cells from the bone marrow was accomplished by using biotin-conjugated anti-CD4 and anti-CD8 mAbs, and streptavidin Microbeads (Miltenyi Biotec, Germany), followed by passage through an autoMACS Pro cell sorter (Miltenyi Biotec, Germany). Microbeads (Ly-2, Miltenyi Biotec, Germany) were used for to purify CD8^+T cell, and purity was>99%. The assessment and scoring of clinical signs of GVHD have been described in previous publications^60.
ELISA: Reg3γ(antibodies online), ST2 (R&D system) and sTNFR1 (Thermo Scientific) in serum were measured by enzyme-linked immune sorbent assay (ELISA) according to manufacturer's protocol. Serum was collected and spun down at 2000 rpm for 10 min at 4° C. Clear supernatant was collected and stored at −20° C. until ELISA analysis. […]
Histological analysis: Tissue specimens were fixed in formalin before embedding in paraffin blocks, sectioned and stained with H&E. Slides were examined at 100× or 200× magnification and visualized with a Zeiss Observer II. […] For Paneth cell quantification, a total of 9 pictures from 3 different locations of the H&E-stained slides from one mouse were taken under 200× magnification, and total Paneth cell and crypt numbers were counted, Paneth cell numbers per crypt are shown. […]

## C[C@@H]1C[C@H]2[C@@H]3CCC4=CC(=O)C=C[C@]4(C)[C@@]3(F)[C@@H](O)C[C@]2(C)[C@@]1(O)C(=O)CO [DEX, Dexamethasone]
Recipients treated with DEX, 7 days after HCT
  IL-17A+IL-22−CD4+Th17 and IL-17A+IL-22−CD8+Tc17 cells among CD4+ and CD8+T cells: 1-5%
Single injection 5 mg/Kg on day 3 (1-DEX), mild clinical GVHD
  survival after HCT: up to 20 days
